The results in this text go back to EP0726261A1, “Herbidical 1,2,4 thiadiazoles” (American Cyanamid Company, priority 1995, dated 1996).

Common to all, as to type: in vivo
The subject of test [1] is Triticum aestivum. Nature of the test: Preemergence herbicidal activity (Example 67). The arrangement: herbicide rating, TRZAW: scale not given here. Particulars: pre, 800 g/ha; for herbicide rating, TRZAW: rated about 1-3 weeks after treatment. Here is the method: (§1) Herbicidal evaluation of compounds of the invention is conducted on the following plant species:
(§2) The soil is a prepared horticultural substrate containing 30% peat, 20% volcanic clay, 30% bark residues and 20% polyamide/styromull in a 1:3 mixture with loamy sand. Test solutions are prepared by dissolving the test compound in acetone containing 0.5% of an alkylphenol/ethylene oxide condensate under the trademark, TRITON® X-155, and diluting with water as needed. The test solutions are applied as a spray to the 3-6 week old seedling plants at dose rates corresponding to 800g/ha in a volume equivalent to 400 L/ha. A pneumatic spraying device employing a Teejet nozzle SS 8002E operating at 3 bar is used for a predetermined time. After spraying, the treated plants are placed on greenhouse benches and cared for in a manner commensurate with conventional greenhouse practice. After 10-21 days, the treated plants are evaluated and rated according to the rating system provided below.
(§3) The soil surface is then sprayed with test solutions as described in the postemergence evaluation hereinabove. After spraying, the treated cups are placed on greenhouse benches and cared for in the manner commensurate with conventional greenhouse practice. About 1-3 weeks after treatment the cups are evaluated and rated according to the rating system provided hereinabove.

Test [2] has as its system Hordeum vulgare. The test is described as follows: Preemergence herbicidal activity (Example 67). Also on record: herbicide rating, HORVW: scale not given here. Particulars: pre, 800 g/ha; for herbicide rating, HORVW: rated about 1-3 weeks after treatment. Here is the method:
as §1, §2, §3

The test system of test [3] is Alopecurus myosuroides. The test is described as follows: Preemergence herbicidal activity (Example 67). The arrangement: herbicide rating, ALOMY: scale not given here. Particulars: pre, 800 g/ha; for herbicide rating, ALOMY: rated about 1-3 weeks after treatment. On the procedure: as §1, §2, §3
Test [4] relates to Setaria viridis. The test is described as follows: Preemergence herbicidal activity (Example 67). Particulars: pre, 800 g/ha; for herbicide rating, SETVI: rated about 1-3 weeks after treatment. Also on record: herbicide rating, SETVI: scale not given here. Here is the method: as §1, §2, §3
Test [5] deals with Abutilon theophrasti. The test is described as follows: Preemergence herbicidal activity (Example 67). Particulars: pre, 800 g/ha; for herbicide rating, ABUTH: rated about 1-3 weeks after treatment. On the procedure: as §1, §2, §3
Test [6] deals with Amaranthus retroflexus. Nature of the test: Preemergence herbicidal activity (Example 67). Particulars: pre, 800 g/ha; for herbicide rating, AMARE: rated about 1-3 weeks after treatment. On the procedure:
as §1, §2, §3

Test [7] has as its system Chenopodium album. Nature of the test: Preemergence herbicidal activity (Example 67). Particulars: pre, 800 g/ha; for herbicide rating, CHEAL: rated about 1-3 weeks after treatment. Here is the method:
as §1, §2, §3

The subject of test [8] is Galium aparine. Nature of the test: Preemergence herbicidal activity (Example 67). Particulars: pre, 800 g/ha; for herbicide rating, GALAP: rated about 1-3 weeks after treatment. On the procedure: as §1, §2, §3
For test [9], the system named is Helianthus annuus. Nature of the test: Preemergence herbicidal activity (Example 67). Particulars: pre, 800 g/ha; for herbicide rating, HELAN: rated about 1-3 weeks after treatment. On the procedure: as §1, §2, §3
Test [10] concerns Ipomoea hederacea. Nature of the test: Preemergence herbicidal activity (Example 67). Particulars: pre, 800 g/ha; for herbicide rating, IPOHE: rated about 1-3 weeks after treatment. Here is the method: as §1, §2, §3
The test system of test [11] is Veronica persica. Nature of the test: Preemergence herbicidal activity (Example 67). Particulars: pre, 800 g/ha; for herbicide rating, VERPE: rated about 1-3 weeks after treatment. Here is the method:
as §1, §2, §3

Test [12] concerns Zea mays. The test is described as follows: Preemergence herbicidal activity (Example 67). Particulars: pre, 800 g/ha; for herbicide rating, ZEAMX: rated about 1-3 weeks after treatment. Here is the method:
as §1, §2, §3

The test system of test [13] is Abutilon theophrasti. The test is described as follows: Postemergence herbicidal activity (Example 67). Particulars: pos, 800 g/ha; for herbicide rating, ABUTH: rated after 10-21 days. On the procedure: as §1, §2
The subject of test [14] is Alopecurus myosuroides. The test is described as follows: Postemergence herbicidal activity (Example 67). Particulars: pos, 800 g/ha; for herbicide rating, ALOMY: rated after 10-21 days. Here is the method: as §1, §2
In test [15] the test system is Amaranthus retroflexus. Nature of the test: Postemergence herbicidal activity (Example 67). Particulars: pos, 800 g/ha; for herbicide rating, AMARE: rated after 10-21 days. Here is the method:
as §1, §2

Test [16] deals with Chenopodium album. Nature of the test: Postemergence herbicidal activity (Example 67). Particulars: pos, 800 g/ha; for herbicide rating, CHEAL: rated after 10-21 days. On the procedure: as §1, §2
For test [17], the system named is Galium aparine. Nature of the test: Postemergence herbicidal activity (Example 67). Particulars: pos, 800 g/ha; for herbicide rating, GALAP: rated after 10-21 days. On the procedure:
as §1, §2

The test system of test [18] is Helianthus annuus. The test is described as follows: Postemergence herbicidal activity (Example 67). Particulars: pos, 800 g/ha; for herbicide rating, HELAN: rated after 10-21 days. On the procedure:
as §1, §2

Test [19] relates to Hordeum vulgare. Nature of the test: Postemergence herbicidal activity (Example 67). Particulars: pos, 800 g/ha; for herbicide rating, HORVW: rated after 10-21 days. Here is the method:
as §1, §2

Test [20] deals with Ipomoea hederacea. Nature of the test: Postemergence herbicidal activity (Example 67). Particulars: pos, 800 g/ha; for herbicide rating, IPOHE: rated after 10-21 days. On the procedure: as §1, §2
The subject of test [21] is Setaria viridis. The test is described as follows: Postemergence herbicidal activity (Example 67). Particulars: pos, 800 g/ha; for herbicide rating, SETVI: rated after 10-21 days. On the procedure: as §1, §2
Test [22] deals with Triticum aestivum. Nature of the test: Postemergence herbicidal activity (Example 67). Particulars: pos, 800 g/ha; for herbicide rating, TRZAW: rated after 10-21 days. Here is the method: as §1, §2
The test system of test [23] is Veronica persica. The test is described as follows: Postemergence herbicidal activity (Example 67). Particulars: pos, 800 g/ha; for herbicide rating, VERPE: rated after 10-21 days. On the procedure: as §1, §2
For test [24], the system named is Zea mays. Nature of the test: Postemergence herbicidal activity (Example 67). Particulars: pos, 800 g/ha; for herbicide rating, ZEAMX: rated after 10-21 days. On the procedure: as §1, §2

On to `CC(NC(=O)c1nc(-c2ccccc2F)ns1)c1cccs1` (racemic) [Example 38], for which the “herbicide rating, TRZAW” value is listed as 0 with Triticum aestivum [1] and 3 (16-29%) in the test on Triticum aestivum [22]. Further, the entries for the “herbicide rating, HORVW” value with Hordeum vulgare [2] and with Hordeum vulgare [19] were 0 and 3 (16-29%), respectively. The “herbicide rating, ALOMY” value in the test with Alopecurus myosuroides [3] is 0; in the test with Alopecurus myosuroides [14], 4 (30-44%). Moreover, the results for the “herbicide rating, SETVI” value in the test with Setaria viridis [4] and in the test with Setaria viridis [21] were 0 and 8 (91-99%), respectively. Besides, the “herbicide rating, ABUTH” value is 0 with Abutilon theophrasti [5] and 8 (91-99%) in the test with Abutilon theophrasti [13]. Also, the “herbicide rating, AMARE” value in the test with Amaranthus retroflexus [6] is listed as 4 (30-44%); in the test with Amaranthus retroflexus [15], 3 (16-29%). The “herbicide rating, CHEAL” value was 5 (45-64%) in the test with Chenopodium album [7] and 6 (65-79%) in the test on Chenopodium album [16]. Also, the results for the “herbicide rating, GALAP” value with Galium aparine [8] and in the test with Galium aparine [17] were 0 and 5 (45-64%), respectively. Also, the “herbicide rating, HELAN” value in the test on Helianthus annuus [9] is recorded as 0; in the test with Helianthus annuus [18], 7 (80-90%). For the same compound, the results for the “herbicide rating, IPOHE” value with Ipomoea hederacea [10] and in the test with Ipomoea hederacea [20] were 0 and 5 (45-64%), respectively. In addition, the “herbicide rating, VERPE” value is given as 2 (6-15%) in the test on Veronica persica [11] and 1 (1-5%) with Veronica persica [23]. For the same compound, the “herbicide rating, ZEAMX” value was 0 in the test with Zea mays [12] and 3 (16-29%) in the test with Zea mays [24].
As to `COc1ccc(-c2nsc(C(=O)Nc3cccc4c3CCCC4)n2)cc1` [Example 55], the “TRZ AW rating” value with Triticum aestivum [1] is reported as 0; in the test with Triticum aestivum [22], 1 (1-5%). For the same compound, the entries for the “HOR VW rating” value in the test on Hordeum vulgare [2] and in the test with Hordeum vulgare [19] were 0 and 2 (6-15%), respectively. The “ALO MY rating” value in the test with Alopecurus myosuroides [3] and in the test on Alopecurus myosuroides [14] was 0 in each case. The figures for the “SET VI rating” value in the test on Setaria viridis [4] and with Setaria viridis [21] were 0 and 4 (30-44%), respectively. Besides, the “ABU TH rating” value with Abutilon theophrasti [5] is given as 1 (1-5%); with Abutilon theophrasti [13] it was 0. Besides, the “AMA RE rating” value in the test on Amaranthus retroflexus [6] and in the test on Amaranthus retroflexus [15] was 0 in each case. Besides, the “CHE AL rating” value in the test on Chenopodium album [7] and with Chenopodium album [16] was 0 throughout. Besides, the entries for the “GAL AP rating” value in the test with Galium aparine [8] and in the test on Galium aparine [17] were 0 and 3 (16-29%), respectively. Also, the “HEL AN rating” value with Helianthus annuus [9] is given as 0; in the test with Helianthus annuus [18], 2 (6-15%). The “IPO HE rating” value with Ipomoea hederacea [10] is given as 3 (16-29%); in the test on Ipomoea hederacea [20], 0. In addition, the “VER PE rating” value in the test on Veronica persica [11] is reported as 2 (6-15%); in the test on Veronica persica [23] it was 0. Also, the “ZEA MX rating” value is 0 in the test on Zea mays [12] and 3 (16-29%) with Zea mays [24].
In the case of `CC(NC(=O)c1nc(-c2ccc(Cl)cc2)ns1)c1cccs1` (racemic) [Example 26], the “herbicide rating, TRZAW” value in the test on Triticum aestivum [1] is listed as 0; in the test on Triticum aestivum [22] it was 2 (6-15%). Further, the “herbicide rating, HORVW” value with Hordeum vulgare [2] is 0; with Hordeum vulgare [19], 3 (16-29%). The “herbicide rating, ALOMY” value in the test with Alopecurus myosuroides [3] is 0; with Alopecurus myosuroides [14], 2 (6-15%). In addition, the figures for the “herbicide rating, SETVI” value in the test with Setaria viridis [4] and in the test with Setaria viridis [21] were 0 and 5 (45-64%), respectively. Also, the “herbicide rating, ABUTH” value in the test on Abutilon theophrasti [5] is on record as 0; in the test with Abutilon theophrasti [13], 5 (45-64%). The “herbicide rating, AMARE” value in the test with Amaranthus retroflexus [6] is on record as 0; in the test with Amaranthus retroflexus [15], 6 (65-79%). In addition, the results for the “herbicide rating, CHEAL” value in the test on Chenopodium album [7] and with Chenopodium album [16] were 3 (16-29%) and 5 (45-64%), respectively. Moreover, the “herbicide rating, GALAP” value in the test on Galium aparine [8] is recorded as 0; with Galium aparine [17] it was 5 (45-64%). The “herbicide rating, HELAN” value is reported as 0 in the test on Helianthus annuus [9] and 7 (80-90%) in the test on Helianthus annuus [18]. Also, the entries for the “herbicide rating, IPOHE” value in the test with Ipomoea hederacea [10] and in the test with Ipomoea hederacea [20] were 0 and 6 (65-79%), respectively. Moreover, the figures for the “herbicide rating, VERPE” value with Veronica persica [11] and in the test on Veronica persica [23] were 2 (6-15%) and 4 (30-44%), respectively. For the same compound, the entries for the “herbicide rating, ZEAMX” value in the test with Zea mays [12] and in the test with Zea mays [24] were 0 and 4 (30-44%), respectively.
